PMC9028180, “Anti-Inflammatory Activity of Monosubstituted Xestoquinone Analogues from the Marine Sponge Neopetrosia compacta” (Antioxidants, 2022)
Where two headings read alike, the source gives them in different places.

Experiments:
Il1b = experiment: qRT-PCR differential gene expression, Il1b; assay type: cell-based, murine; settings: 10 μM, 12 h, LPS-stimulated RAW 264.7; relative to LPS-stimulated solvent control
Experimental: (§1) RAW 264.7 cells (passage number ≤ 6) were seeded in a 6-well microplate at a density of 2.5 × 10^5 cells/well and incubated for 24 h at 37 °C with 5% CO2 prior to treatment. Cells were treated with 10 μM compound or 0.5% DMSO in duplicate and incubated for 1 h before stimulation with LPS (1 µg/mL). At 12 h post-treatment, total RNA was extracted with Qiagen RNeasy extraction kit (Germantown, MD, USA) according to manufacturer’s protocol. RNA was reverse-transcribed from 2 µg of total RNA using SuperScript IV Reverse Transcriptase (Invitrogen, Waltham, MA, USA), 1 mM dNTP, and Oligo (dT)12–18 primer (0.5 µg/mL, Invitrogen). Quantitative real time-PCR (qRT-PCR) was performed in ABI 7500 Fast Real-Time PCR (Applied Biosystems, Bedford, MA, USA). qRT-PCR was performed as a 25 µL total reaction mixture, composed of 1X TaqMan® universal master mix, 1X TaqMan® gene expression assay mix, 2 µL of cDNA, and 9.25 µL RNase-free sterile water. Analyses were carried out using probes for Il1b (Assay ID Mm00434228_m1), Nos2 (Mm00440502_m1), and Nqo1 (Mm01253561_m1). The thermocycler program was designed as follows: 50 °C for 2 min, 95 °C for 10 min, and 40 cycles of 95 °C for 15 s and 60 °C for 1 min. Mouse Gapdh (Mm99999915_g1) was used as the internal control for normalization. The measurement of gene expression is reported in cycles to threshold (Ct) PCR, whose value represents the cycle number at which the amount of amplified DNA of the target gene reached the threshold level. The relative gene expression was analyzed using the comparative Ct method to compare the Ct value of the target gene to the internal control in a treatment sample. Statistical analysis on the relative gene expression was carried out using one-way ANOVA and Tukey’s multiple comparison test with p-value < 0.05. Analysis was done in two independent experiments with three technical replicates each.

[1] = tested on: Nrf2-luciferase reporter MCF7 stable cells; experiment: Nrf2-ARE activation luciferase reporter assay; assay type: cell-based
Experimental: Nrf2-luciferase reporter MCF7 stable cells (Signosis, Inc.) were grown in high glucose DMEM (Hyclone, Logan, UT, USA) supplemented with 10% FBS, 1% antibiotic-antimycotic solution, and 75 µg/mL geneticin. A 100-µL cell suspension was plated with a seeding density of 20,000 cells/well. The plate was incubated at 37 °C with 5% CO2 for 24 h prior to treatment. Cells were treated with compounds at half-log dilution, ranging from 0.032–100 µM (0.5% DMSO). DMSO (0.5%) and tBHQ (0.01–32 μM) served as solvent and positive controls, respectively. After 8-, 12-, and 16-h incubation, the medium was removed, and cells were washed with 100 µL 1X PBS. Lysis buffer (Signosis, Inc.) was added, and the plate was further incubated for 15 min at room temperature. A 100-µL firefly luciferase substrate (Signosis, Inc.) was added, and luminescence was measured. Nrf2 fold activation of treated cells was assessed relative to the solvent control. The assay was done in two independent experiments in triplicate.

[2] = tested on: Nrf2-luciferase reporter MCF7 stable cells; experiment: Cytotoxicity counter-screen on Nrf2-luciferase reporter MCF7 cells; assay type: cell-based
Experimental: Absorbance was measured at 570 nm. […] For the cytotoxicity counter-screen, Nrf2-luciferase reporter MCF7 stable cells were grown, seeded, and treated identically with the reporter assay. Cell viability was done using the tetrazolium reagent, as indicated previously.

Nos2 = experiment: qRT-PCR differential gene expression, Nos2; assay type: cell-based, murine; settings: 10 μM, 12 h, LPS-stimulated RAW 264.7; relative to LPS-stimulated solvent control
Experimental: as §1

[3] = Direct antioxidant activity, DPPH scavenging assay; settings: 30 min, room temperature
Experimental: The direct antioxidant activity of 1–6 was determined using the 2,2-diphenyl-1-picrylhydrazyl (DPPH) scavenging method. Half-log dilution of 1–6 (0.032 to 100 µM) was prepared in MeOH. Then, 20 μL of 1 mM DPPH was dispensed into each well and incubated for 30 min at room temperature with shaking. Absorbance was measured at 517 nm, and results are presented as % radical scavenging activity (% RSA) relative to the solvent control. Ascorbic acid (0.032–100 µM) and tBHQ (0.032–100 µM) served as positive controls, while 0.5% DMSO served as solvent control. The analysis was done in triplicate.

[4] = tested on: LPS-stimulated RAW 264.7 murine macrophage cells; experiment: Tetrazolium-based (MTT) cell viability assay; settings: for IC50: read-out: Cell Viability (IC50); for CC50: Mus musculus, RAW264.7, 24 h; for decrease in cytotoxicity relative to 1: from cell viability IC50, compound pre-treatment + LPS
Experimental: MTT solution (5 mg/mL in PBS, 15 µL) was added to the original assay plate, and the reaction was terminated with the addition of acidified sodium dodecyl sulfate (SDS) solution after 2 h. Absorbance was measured at 570 nm. […] The concentration-dependent response curve for cell viability of the pure compounds was generated, and the IC50 was determined using a non-linear regression, inhibitor vs. normalized response—variable slope analysis. Samples were tested in at least one independent experiment performed in triplicate.
Statistical comparison of the cell viability IC50 of 2–6 relative to xestoquinone (1) was analyzed using one-way ANOVA and Tukey’s post-hoc test at p-value < 0.05. Comparison of the IC50 values from NO production and cytotoxicity assessment for each of the compounds were analyzed using a one-tailed unpaired t-test at p-value < 0.05.

[5] = tested on: NO production in LPS-stimulated RAW 264.7 murine macrophage cells; experiment: Nitric oxide production assay (Griess) in LPS-stimulated RAW 264.7 cells; assay type: cell-based
Experimental: The anti-inflammatory activity of the extracts and compounds was assessed according to the procedure of Ratnayake et al. (2013). RAW 264.7 murine macrophage cells (passage number ≤ 6) were grown in Dulbecco’s Modified Eagle’s Medium (DMEM) supplemented with 10% fetal bovine serum (FBS) and 1% antibiotic-antimycotic solution. At 24 h post-incubation, the cells (200,000 cells/mL) were treated with extracts (50 and 5 µg/mL) or pure compounds in triplicate. For pure compounds, a 20 mM stock was prepared in DMSO and serially diluted to generate eight concentrations ranging from 0.032–100 µM. DMSO (0.5%) served as the solvent control. Dexamethasone (50 µM) and tBHQ (10 µM) served as positive controls. LPS (1 µg/mL) was added to each well after 1 h of extract or compound pre-treatment. A reverse treatment was also done for compounds, where cells were first pre-treated with LPS (1 µg/mL) prior to the addition of the compound.
After 24 h of incubation, NO production was assessed by measuring the nitrite concentration using the Griess Reagent System (Promega, Madison, WI, USA) according to the manufacturer’s protocol. Results were presented as %NO production relative to LPS-stimulated solvent control.

Nqo1 = experiment: qRT-PCR differential gene expression, Nqo1; assay type: cell-based, murine; settings: 10 μM, 12 h, LPS-stimulated RAW 264.7
Experimental: as §1

[6] = Compound pre-treatment 1 h + LPS, 24 h, mean ± SD of two independent experiments
[7] = LPS pre-treatment 1 h + compound, single experiment in triplicate
[8] = Compound pre-treatment 1 h + LPS (1 µg/mL), 24 h, mean ± SD of two independent experiments, read-out: NO Production (IC50)
[9] = LPS pre-treatment 1 h + compound, single experiment in triplicate, read-out: NO Production (IC50)
[10] = read-out: Cell Viability (IC50), Compound pre-treatment 1 h + LPS, 24 h, mean ± SD of two independent experiments
[11] = read-out: Cell Viability (IC50), LPS pre-treatment 1 h + compound, single experiment in triplicate
[12] = Mus musculus, RAW264.7, 24 h, Compound pre-treatment 1 h + LPS (1 µg/mL), 24 h, mean ± SD of two independent experiments, read-out: NO Production (IC50)
[13] = Mus musculus, RAW264.7, 24 h, LPS pre-treatment 1 h + compound, single experiment in triplicate, read-out: NO Production (IC50)
[14] = both timepoints (12 h and 16 h)

Question: Which “downregulation of Il1b expression” value (Il1b) does the source give for `CC(C)(C)c1cc(O)ccc1O` [tBHQ, reference compound] here?
Answer: six

Question: And the Nrf2 activation ([1]; 12 h, 32 μM)?
Answer: 18 fold

Question: What about the Nrf2 activation ([1]; 16 h, 10 μM) of the same compound?
Answer: four

Question: What about the Nrf2 activation ([1]; 16 h, 32 μM) of the same compound?
Answer: 19 fold

Question: What about the “cytotoxicity to Nrf2-MCF7 cells” value ([2]; 12 h, 10 and 32 μM) of the same compound?
Answer: no observable cytotoxicity

Question: What about the “cytotoxicity to Nrf2-MCF7 cells” value ([2]; 16 h, 10 and 32 μM) of the same compound?
Answer: non-cytotoxic

Question: And the “downregulation of LPS-induced Nos2 expression” value (Nos2)?
Answer: 3.8 fold

Question: What about the IC50 [3] of the same compound?
Answer: 11 µM

Question: And the IC50 [4, 6]?
Answer: > 100 µM

Question: And the IC50 [4, 7]?
Answer: > 100 µM

Question: And the “reduction of NO production” value ([5]; 10 µM)?
Answer: 90%

Question: And the IC50 [5, 8]?
Answer: 1.2 ± 0.23 µM

Question: And the IC50 [5, 9]?
Answer: 0.42 µM

Question: And the “upregulation in Nqo1 expression” value (Nqo1)?
Answer: 6.3 fold

Question: What does the source list for `CC12CCCc3coc(c31)C(=O)c1cc3c(cc12)C(=O)C(CO)=CC3=O` (stereo not shown) [Compound 5, 15-hydroxymethylxestoquinone]?
Answer: downregulation of Il1b expression (Il1b): 2.1 fold; downregulation of LPS-induced Nos2 expression (Nos2): 2.6 fold; CC50 [4, 10]: > 32 µM; CC50 [4, 11]: > 32 µM; decrease in cytotoxicity relative to 1 [4]: five; IC50 [5, 12]: 4 ± 2.4 µM; IC50 [5, 13]: 4.7 µM; upregulation in Nqo1 expression (Nqo1): 3.0 fold

Question: Which results are given for `C[C@@]12CCCc3coc(c31)C(=O)c1cc3c(cc12)C(=O)C=CC3=O` [Compound 1, xestoquinone]?
Answer: downregulation of Il1b expression (Il1b): 2.6 fold; Nrf2 activation ([1]; 12 h, 1.0 μM, relative to solvent control): at least three; Nrf2 activation ([1]; 12 h, 3.2 μM): at least three; Nrf2 activation ([1]; 12 h posttreatment): modest increase in Nrf2 activation; Nrf2 activation ([1]; 16 h, 1.0 μM): four; Nrf2 activity in reporter assay ([1]; 16 h incubation): significant activation; cytotoxicity to Nrf2-MCF7 cells ([2]; 12 h, 1.0 and 3.2 μM): no cytotoxicity; cytotoxicity to Nrf2-MCF7 cells ([2]; 16 h, 1.0 and 3.2 μM): no significant cytotoxic effects; downregulation of LPS-induced Nos2 expression (Nos2): 2.7 fold; CC50 [4, 10]: 6 ± 3.2 µM; CC50 [4, 11]: 4.9 µM; IC50 [5, 12]: 1.2 ± 0.1 µM; IC50 [5, 13]: 0.99 µM; upregulation in Nqo1 expression (Nqo1): did not change the Nqo1 expression

Question: Which IC50 [3] does the source give for `O=C1O[C@H]([C@@H](O)CO)C(O)=C1O` [ascorbic acid] here?
Answer: 13 µM

Question: Which CC50 [4, 10] does the source give for `C[C@@H]1C[C@H]2[C@@H]3CCC4=CC(=O)C=C[C@]4(C)[C@@]3(F)[C@@H](O)C[C@]2(C)[C@@]1(O)C(=O)CO` [dexamethasone, reference compound] here?
Answer: > 100 µM

Question: What about the CC50 [4, 11] of the same compound?
Answer: > 100 µM

Question: What about the “reduction of NO production” value ([5]; 50 µM) of the same compound?
Answer: 50%

Question: And the IC50 [5, 12]?
Answer: > 0.032 µM

Question: What about the IC50 [5, 13] of the same compound?
Answer: > 0.032 µM

Question: Which Nrf2 activation ([1]; 12 h posttreatment) does the source give for `CC12CCCc3coc(c31)C(=O)c1cc3c(cc12)C(=O)C=C(CO)C3=O` (stereo not shown) [Compound 4, 14-hydroxymethylxestoquinone] here?
Answer: modest increase in Nrf2 activation

Question: And the CC50 [4, 10]?
Answer: 16 ± 0.68 µM

Question: What about the CC50 [4, 11] of the same compound?
Answer: 27 µM

Question: What about the “decrease in cytotoxicity relative to 1” value [4] of the same compound?
Answer: more than two

Question: What about the IC50 [5, 12] of the same compound?
Answer: 2.5 ± 0.39 µM

Question: What about the IC50 [5, 13] of the same compound?
Answer: 1.8 µM

Question: Which Nrf2 activation [1, 14] does the source give for adociaquinone A [Compound 3] here?
Answer: Nrf2 activation was not observed

Question: What about the IC50 [4, 6] of the same compound?
Answer: 6.4 ± 1.2 µM

Question: And the IC50 [4, 7]?
Answer: 5.9 µM

Question: What about the IC50 [5, 8] of the same compound?
Answer: 2.1 ± 0.17 µM

Question: And the IC50 [5, 9]?
Answer: 1.5 µM

Question: What does the source list for `C[C@@]12CCCc3coc(c31)C(=O)c1cc3c(cc12)C(=O)C1=C(NCCS1(=O)=O)C3=O` [Compound 2, adociaquinone B]?
Answer: downregulation of Il1b expression (Il1b): 12.1 fold; Nrf2 activation [1, 14]: Nrf2 activation was not observed; downregulation of LPS-induced Nos2 expression (Nos2): unaffected; CC50 [4, 10]: 5.3 to 6.4 µM; CC50 [4, 11]: 4.2 µM; IC50 ([5]; Mus musculus, RAW264.7, 24 h, read-out: NO Production (IC50), Compound pre-treatment 1 h + LPS (1 µg/mL), 24 h, mean ± SD of two independent experiments): 1.9 ± 0.72 µM; IC50 ([5]; Mus musculus, RAW264.7, 24 h, read-out: NO Production (IC50), LPS pre-treatment 1 h + compound, single experiment in triplicate): 1.5 µM; upregulation in Nqo1 expression (Nqo1): did not change the Nqo1 expression
